Source: patent US8541592B2, “Inhibitors of 11-beta-hydroxysteroid dehydrogenase type 1” (Amgen Inc., priority 2005, dated 2013)

These compounds were tested against T1, 11β-HSD1 (human enzyme) (Homo sapiens, UniProt P28845) (assay: Enzyme Assay (SPA, 3H-cortisone), human enzyme prep). Settings: species of enzyme (human or mouse) not stated.
T1 construct: made in house
Assay type: biochemical

T1 sequence (P28845 whole entry): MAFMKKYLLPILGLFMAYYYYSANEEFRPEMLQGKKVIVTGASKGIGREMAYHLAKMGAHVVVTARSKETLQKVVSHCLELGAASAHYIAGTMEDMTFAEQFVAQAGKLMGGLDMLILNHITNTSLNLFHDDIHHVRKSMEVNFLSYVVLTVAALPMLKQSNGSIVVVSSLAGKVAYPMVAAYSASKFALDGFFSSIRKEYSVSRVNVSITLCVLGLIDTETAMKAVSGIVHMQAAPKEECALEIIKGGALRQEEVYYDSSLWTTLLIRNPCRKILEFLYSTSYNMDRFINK

IC50, < 20 nM:
CC(C)C1(C)SC(Nc2ccccc2Cl)=NC1=O (stereo not shown) [2-((2-chlorophenyl)amino)-5-methyl-5-(1-methylethyl)-1,3-thiazol-4(5H)-one]
CC1(CC2CCOCC2)SC(N[C@H]2C[C@@H]3CC[C@H]2C3)=NC1=O (stereo partly drawn) [2-((1S,2S,4R)-bicyclo[2.2.1]heptan-2-ylamino)-5-methyl-5-((tetrahydro-2H-pyran-4-yl)methyl)thiazol-4(5H)-one]
CC(C)C1(C)SC(Nc2ccccc2C(F)(F)F)=NC1=O (stereo not shown) [5-methyl-5-(1-methylethyl)-2-((2-(trifluoromethyl)phenyl)amino)-1,3-thiazol-4(5H)-one]
Cc1ccccc1NC1=NC(=O)C(C2CCCC2)S1 (stereo not shown) [2-(o-toluidino)-5-cyclopentylthiazol-4(5H)-one]
